# Columns and labels:
# [1] = biological target: T1, Amine oxidase [flavin-containing] B (Rattus norvegicus, UniProt P19643)
# T1 sequence (P19643 whole entry): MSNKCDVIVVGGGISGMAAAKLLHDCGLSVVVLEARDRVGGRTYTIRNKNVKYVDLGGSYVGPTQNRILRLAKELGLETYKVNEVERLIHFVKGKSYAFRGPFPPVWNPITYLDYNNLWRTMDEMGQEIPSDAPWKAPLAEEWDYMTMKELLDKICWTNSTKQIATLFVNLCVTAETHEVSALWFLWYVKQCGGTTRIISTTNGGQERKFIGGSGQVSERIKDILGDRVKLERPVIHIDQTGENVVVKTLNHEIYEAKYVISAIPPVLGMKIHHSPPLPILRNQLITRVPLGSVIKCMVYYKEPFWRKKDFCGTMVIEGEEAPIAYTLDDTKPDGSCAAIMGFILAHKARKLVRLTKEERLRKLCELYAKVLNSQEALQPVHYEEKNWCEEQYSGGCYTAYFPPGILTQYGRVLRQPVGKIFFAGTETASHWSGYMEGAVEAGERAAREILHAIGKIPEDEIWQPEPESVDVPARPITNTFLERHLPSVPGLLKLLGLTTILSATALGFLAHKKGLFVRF
# Description: Inhibition of rat liver mitochondrial MAO-B using [14C]-phenylethylamine after 30 mins by scintillation counting
# [2] = biological target: T2, Amine oxidase [flavin-containing] A (Rattus norvegicus, UniProt P21396)
# T2 sequence (P21396 whole entry): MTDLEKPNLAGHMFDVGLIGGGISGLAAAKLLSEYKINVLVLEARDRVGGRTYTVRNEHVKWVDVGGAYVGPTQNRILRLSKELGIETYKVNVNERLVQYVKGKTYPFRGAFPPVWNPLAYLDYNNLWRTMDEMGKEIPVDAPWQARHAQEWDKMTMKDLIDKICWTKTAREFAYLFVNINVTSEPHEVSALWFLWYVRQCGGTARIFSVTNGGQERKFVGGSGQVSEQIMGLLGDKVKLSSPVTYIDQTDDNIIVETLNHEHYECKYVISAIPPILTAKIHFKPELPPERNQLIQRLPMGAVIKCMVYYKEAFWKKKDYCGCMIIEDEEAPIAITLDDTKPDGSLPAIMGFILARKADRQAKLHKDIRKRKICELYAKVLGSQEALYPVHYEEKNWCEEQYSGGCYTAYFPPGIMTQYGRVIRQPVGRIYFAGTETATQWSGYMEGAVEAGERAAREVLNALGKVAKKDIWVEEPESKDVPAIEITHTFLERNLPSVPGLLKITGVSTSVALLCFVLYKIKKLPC
# Description: Inhibition of rat liver mitochondrial MAO-A using [14C]-5-hydroxytryptamine after 30 mins by scintillation counting
# Acetylcholinesterase [3] = biological target: Acetylcholinesterase (Electrophorus electricus, UniProt O42275)
# Description: Inhibition of Electrophorus electricus AchE using acetylthiocholine iodide as substrate preincubated for 10 mins measured after 15 mins of substrate addition by Ellman's method
# Cholinesterase [4] = biological target: Cholinesterase (Equus caballus, UniProt P81908)
# Description: Inhibition of equine serum BuchE using butyrylthiocholine iodide as substrate preincubated for 10 mins measured after 15 mins of substrate addition by Ellman's method
# [5] = biological target: T2, Amine oxidase [flavin-containing] A; test: Irreversible inhibition of rat liver mitochondrial MAO-A using 5-hydroxytryptamine as substrate at 6 nM preincubated for 30 mins measured after three consecutive washes with buffer; settings: 0.006 µM
# [6] = biological target: T1, Amine oxidase [flavin-containing] B; test: Non-competitive inhibition of rat liver mitochondrial MAO-B using phenylethylamine as substrate by Line-Weaver Burk plot analysis
# Acetylcholinesterase [7] = biological target: T3, Acetylcholinesterase (Homo sapiens, UniProt P22303); settings: 100 uM
# Description: Inhibition of human AChE-induced amyloid beta (1 to 40) aggregation at 100 uM measured every 10 mins for 10 hrs by thioflavin T-based fluorometric analysis
# [8] = biological target: T1, Amine oxidase [flavin-containing] B; test: Reversible inhibition of rat liver mitochondrial MAO-B using phenylethylamine assessed as recovered enzyme activity at 45 nM preincubated for 30 mins measured after three consecutive washes with buffer; set-up: scale not given: the % may be the effect or the level left; settings: read-out: Activity
# [9] = biological target: T1, Amine oxidase [flavin-containing] B; test: Reversible inhibition of rat liver mitochondrial MAO-B using phenylethylamine as substrate assessed as substrate consumption at 100 nM preincubated for 30 mins measured up to 420 mins; settings: 7 h, 0.1 µM
# [10] = biological target: T2, Amine oxidase [flavin-containing] A; test: Irreversible inhibition of rat liver mitochondrial MAO-A using 5-hydroxytriptamine as substrate assessed as substrate consumption at 10 nM preincubated for 30 mins measured up to 420 mins; settings: 7 h, 0.01 µM
# [11] = biological target: T1, Amine oxidase [flavin-containing] B; test: Irreversible inhibition of rat liver mitochondrial MAO-B using phenylethylamine as substrate assessed as substrate consumption at 100 nM measured up to 420 mins; settings: 7 h, 0.1 µM
# [12] = biological target: T1, Amine oxidase [flavin-containing] B; test: Time-dependent inhibition of rat liver mitochondrial MAO-B using phenylethylamine at 45 nM; settings: 0.045 µM
# Acetylcholinesterase [13] = biological target: T3, Acetylcholinesterase; test: Inhibition of cerebral human recombinant AchE expressed in HEK293 cells using acetylthiocholine iodide as substrate preincubated for 10 mins measured after 15 mins of substrate addition by Ellman's method
# [14] = biological target: T2, Amine oxidase [flavin-containing] A; test: Irreversible inhibition of rat liver mitochondrial MAO-A using 5-hydroxytryptamine as substrate at 6 nM preincubated for 30 mins measured after three consecutive centrifugation; settings: 0.006 µM
# Cholinesterase [15] = biological target: Cholinesterase (Homo sapiens, UniProt P06276); test: Inhibition of human serum BuchE using butyrylthiocholine iodide as substrate preincubated for 10 mins measured after 15 mins of substrate addition by Ellman's method
# [16] = biological target: T2, Amine oxidase [flavin-containing] A; test: Irreversible inhibition of rat liver mitochondrial MAO-A using 5-hydroxytriptamine as substrate assessed as substrate consumption at 10 nM measured up to 420 mins; settings: 7 h, 0.01 µM
# [17] = biological target: T2, Amine oxidase [flavin-containing] A; test: Time-dependent inhibition of rat liver mitochondrial MAO-A using 5-hydroxytryptamine at 6 nM by scintillation counting; settings: 0.006 µM
# Sequence of Acetylcholinesterase (Electrophorus electricus, UniProt O42275) (O42275 whole entry): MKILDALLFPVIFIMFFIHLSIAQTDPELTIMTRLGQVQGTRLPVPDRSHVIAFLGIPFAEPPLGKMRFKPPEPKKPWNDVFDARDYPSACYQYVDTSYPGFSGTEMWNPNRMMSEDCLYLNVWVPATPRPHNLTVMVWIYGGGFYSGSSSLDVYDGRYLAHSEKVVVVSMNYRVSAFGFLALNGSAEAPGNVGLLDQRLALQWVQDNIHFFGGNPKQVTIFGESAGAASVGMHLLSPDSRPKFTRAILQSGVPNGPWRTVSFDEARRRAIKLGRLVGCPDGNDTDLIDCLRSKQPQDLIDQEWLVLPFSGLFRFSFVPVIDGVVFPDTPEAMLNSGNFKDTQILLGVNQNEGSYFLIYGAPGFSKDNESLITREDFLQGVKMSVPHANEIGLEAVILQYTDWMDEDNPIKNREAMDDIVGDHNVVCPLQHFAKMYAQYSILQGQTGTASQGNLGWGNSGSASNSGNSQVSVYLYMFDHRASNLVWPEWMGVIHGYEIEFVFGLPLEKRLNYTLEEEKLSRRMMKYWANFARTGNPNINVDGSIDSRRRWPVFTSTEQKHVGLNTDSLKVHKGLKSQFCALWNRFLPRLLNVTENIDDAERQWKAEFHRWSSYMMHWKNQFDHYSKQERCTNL
# T3 sequence (P22303 whole entry): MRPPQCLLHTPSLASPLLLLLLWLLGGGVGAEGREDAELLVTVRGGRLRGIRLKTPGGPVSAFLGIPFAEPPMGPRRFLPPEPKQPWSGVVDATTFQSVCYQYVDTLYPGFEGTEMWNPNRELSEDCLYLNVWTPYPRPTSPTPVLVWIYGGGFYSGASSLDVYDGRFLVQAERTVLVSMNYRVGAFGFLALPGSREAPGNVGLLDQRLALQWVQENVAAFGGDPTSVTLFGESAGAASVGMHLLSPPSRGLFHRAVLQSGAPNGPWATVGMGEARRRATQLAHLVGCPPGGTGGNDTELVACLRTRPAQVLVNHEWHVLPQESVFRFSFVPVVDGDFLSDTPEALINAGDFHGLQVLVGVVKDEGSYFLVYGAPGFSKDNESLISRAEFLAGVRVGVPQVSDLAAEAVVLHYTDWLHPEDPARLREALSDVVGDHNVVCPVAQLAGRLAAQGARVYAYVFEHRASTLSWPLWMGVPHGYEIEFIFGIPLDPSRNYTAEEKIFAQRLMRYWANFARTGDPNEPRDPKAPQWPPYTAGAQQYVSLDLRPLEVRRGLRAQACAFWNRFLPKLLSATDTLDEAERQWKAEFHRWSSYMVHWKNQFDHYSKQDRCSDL
# Sequence of Cholinesterase (Homo sapiens, UniProt P06276) (P06276 whole entry): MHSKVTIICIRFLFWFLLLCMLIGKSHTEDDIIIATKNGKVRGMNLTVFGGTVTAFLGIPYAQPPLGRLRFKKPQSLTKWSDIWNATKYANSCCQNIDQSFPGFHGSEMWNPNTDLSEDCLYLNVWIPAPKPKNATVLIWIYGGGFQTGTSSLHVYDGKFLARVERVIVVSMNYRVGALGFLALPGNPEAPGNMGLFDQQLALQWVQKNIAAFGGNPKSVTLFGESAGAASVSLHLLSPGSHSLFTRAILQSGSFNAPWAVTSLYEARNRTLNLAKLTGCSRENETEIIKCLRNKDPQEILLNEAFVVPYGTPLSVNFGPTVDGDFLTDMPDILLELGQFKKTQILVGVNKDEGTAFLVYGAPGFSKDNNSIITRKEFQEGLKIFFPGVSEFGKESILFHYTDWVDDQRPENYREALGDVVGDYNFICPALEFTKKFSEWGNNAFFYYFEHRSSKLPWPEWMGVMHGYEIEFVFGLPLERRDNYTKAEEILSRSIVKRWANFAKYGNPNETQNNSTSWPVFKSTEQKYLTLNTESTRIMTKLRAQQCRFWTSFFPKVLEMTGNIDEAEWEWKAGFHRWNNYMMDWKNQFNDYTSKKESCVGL
# Sequence of Cholinesterase (Equus caballus, UniProt P81908) (P81908 whole entry): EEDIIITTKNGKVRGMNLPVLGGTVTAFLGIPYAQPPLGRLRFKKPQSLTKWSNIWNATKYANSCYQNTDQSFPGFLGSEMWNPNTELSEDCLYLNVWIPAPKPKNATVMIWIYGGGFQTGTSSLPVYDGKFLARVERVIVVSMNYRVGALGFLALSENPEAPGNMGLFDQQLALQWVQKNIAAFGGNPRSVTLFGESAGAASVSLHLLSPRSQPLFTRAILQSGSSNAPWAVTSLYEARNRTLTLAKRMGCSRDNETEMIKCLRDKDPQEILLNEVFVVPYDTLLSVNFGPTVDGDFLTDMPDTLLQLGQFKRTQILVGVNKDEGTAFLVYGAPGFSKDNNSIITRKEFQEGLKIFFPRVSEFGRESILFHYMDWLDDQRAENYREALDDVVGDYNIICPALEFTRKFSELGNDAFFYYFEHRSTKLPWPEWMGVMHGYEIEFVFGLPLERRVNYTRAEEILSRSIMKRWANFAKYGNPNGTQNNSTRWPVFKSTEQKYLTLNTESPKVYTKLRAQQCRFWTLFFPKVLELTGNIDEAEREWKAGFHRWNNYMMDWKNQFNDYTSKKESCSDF
structure (smiles),measurement,setting,value
C#CCN(C)Cc1cc2cc(OCCCCC3CCN(Cc4ccccc4)CC3)ccc2n1C,IC50,[1],2.7 µM
same,IC50,[2],0.01 µM
C#CCN(C)Cc1cc2cc(OCCCN3CCN(Cc4ccccc4)CC3)ccc2n1C,IC50,Acetylcholinesterase [3],> 100 µM
same,IC50,[1],1.6 µM
same,IC50,[2],0.031 µM
C#CCN(C)Cc1cc2cc(OCCN3CCC(Cc4ccccc4)CC3)ccc2n1C,IC50,Acetylcholinesterase [3],> 100 µM
same,IC50,[1],1.4 µM
same,IC50,[2],0.14 µM
C#CCN(C)Cc1cc2cc(OCc3ccccc3)ccc2n1C,IC50,Acetylcholinesterase [3],> 100 µM
same,IC50,Cholinesterase [4],> 100 µM
C#CCN(C)Cc1cc2cc(OCCCC3CCN(Cc4ccccc4)CC3)ccc2n1C,inhibition (INH),[5],Active
same,Ki,[6],0.011 µM
same,inhibition,Acetylcholinesterase [7],32.4%
same,activity at 0.045 µM,[8],80.5%
same,inhibition (INH),[9],Active
same,inhibition (INH),[10],Active
same,inhibition (INH),[11],Active
same,TDI,[12],Active
same,IC50,Acetylcholinesterase [13],0.38 µM
same,inhibition (INH),[14],Active
same,IC50,Cholinesterase [15],1.7 µM
same,inhibition (INH),[16],Active
same,TDI,[17],Active
C#CCN(C)Cc1cc2cc(OCCCN3CCC(Cc4ccccc4)CC3)ccc2n1C,IC50,[1],11 µM

# From ChEMBL document CHEMBL1926501 (J Med Chem, 2011)
